Values after ≈ are worked out from the molar mass of the structure shown. Like-named read-outs stand apart in the source and are kept apart here.
Tests used:
[1] = Microsomal clearance in mouse liver microsomes
M.tb strain H37Rv [2] = experiment: MIC against M.tb H37Rv under non-replicating (LORA) conditions; details: for MIC LORA: MIC90, Table 1; for MIC (µg/mL) LORA: MIC90, Table 2
[3] = Microsomal clearance in human liver microsomes
M.tb strain H37Rv [4] = experiment: MIC against M.tb H37Rv under aerobic (replicating; MABA) conditions; format: cell-based, Mycobacterium tuberculosis; details: for MIC: Mycobacterium tuberculosis
[5] = tested on: Vero green monkey-derived epithelial kidney cells; experiment: Mammalian cytotoxicity in Vero cells; format: cell-based; details: for IC50: Chlorocebus sabaeus
[6] = human, microsomes
[7] = mouse, microsomes
[8] = biological target: M. smegmatis ATP synthase (Mycolicibacterium smegmatis, UniProt A0R205+A0R206); experiment: Inhibition of mycobacterial ATP synthase; format: biochemical; details: for selectivity over the human enzyme: M. smegmatis vs human mitochondrial ATP synthase; for IC50: read-out: M. smeg ATPsynth IC50, M. smegmatis ATP synthase
[9] = MIC90, Table 1, read-out: MIC MABA

Compound	MIC LORA (M.tb strain H37Rv [2]) [µg/mL]	IC50 [8] [µM]	MIC (M.tb strain H37Rv [4]; [9]) [µg/mL]	IC50 ([5]; Table 1) [µg/mL]	melting point [°C]	further results
2-((5-(4-Chlorophenyl)pyridin-2-yl)methyl)-8-(4-methylpiperazin-1-yl)-5-methyl-1,2,3,4-tetrahydroisoquinoline [Compound 12]	5.2					MLM Clint [1]: 239; MIC (µg/mL) LORA (M.tb strain H37Rv [2]): 5.2 µg/mL; HLM Clint [3]: 92; MIC MABA (M.tb strain H37Rv [4]; MIC90, Table 1): 0.79 µg/mL; MIC (µg/mL) MABA (M.tb strain H37Rv [4]; MIC90, Table 2): 0.79 µg/mL; IC50 VERO ([5]; Table 1): 14 µg/mL
CN1CCN(c2cccc3c2CN(Cc2ccc(-c4ccc(Cl)cc4)cn2)CC3)CC1 [Compound 10, 2-((5-(4-Chlorophenyl)pyridin-2-yl)methyl)-8-(4-methylpiperazin-1-yl)-1,2,3,4-tetrahydroisoquinoline]	16 (≈ 37 µM)	16.6	1.8 (≈ 4.16 µM)	16 (≈ 37 µM)		HLM Clint [6]: 121; MLM Clint [7]: 238; selectivity over the human enzyme [8]: > 70 fold
CN1CCN(c2cccc3c2CN(C(=O)Nc2ccc(-c4ccc(OC(F)(F)F)cc4)cn2)CC3)CC1 [Compound 23, 8-(4-Methylpiperazin-1-yl)-N-(5-(4-(trifluoromethoxy)phenyl)pyridin-2-yl)-3,4-dihydroisoquinoline-2(1H)-carboxamide]	3.9 (≈ 7.62 µM)	12.1	3.6 (≈ 7.04 µM)	14 (≈ 27.4 µM)		selectivity over the human enzyme [8]: > 80 fold
Cc1ccc(N2CCN(C)CC2)c2c1CCN(C(=O)Nc1ccc(-c3cc(C(F)(F)F)cc(C(F)(F)F)c3)cn1)C2 [Compound 26, N-(5-(3,5-Bis(trifluoromethyl)phenyl)pyridin-2-yl)-5-methyl-8-(4-methylpiperazin-1-yl)-3,4-dihydroisoquinoline-2(1H)-carboxamide]	5.3 (≈ 9.18 µM)	24.2	3.1 (≈ 5.37 µM)	> 32	114 to 117	
CCc1ccc(N2CCN(C)CC2)c2c1CCN(C(=O)Nc1ccc(-c3ccc(C(F)(F)F)cc3)cn1)C2 [Compound 27, 5-Ethyl-8-(4-methylpiperazin-1-yl)-N-(5-(4-(trifluoromethyl)phenyl)pyridin-2-yl)-3,4-dihydroisoquinoline-2(1H)-carboxamide]	0.9 (≈ 1.72 µM)	4.2	1 (≈ 1.91 µM)	12 (≈ 22.9 µM)		HLM Clint [6]: 107; MLM Clint [7]: 810
COc1ccc(-c2ccc(NC(=O)N3CCc4c(OC)ccc(N5CCN(C)CC5)c4C3)nc2)cc1 [Compound 33, 5-Methoxy-N-(5-(4-methoxyphenyl)pyridin-2-yl)-8-(4-methylpiperazin-1-yl)-3,4-dihydroisoquinoline-2(1H)-carboxamide]	7.4 (≈ 15.2 µM)		7.1 (≈ 14.6 µM)	16 (≈ 32.8 µM)	207 to 209	
COc1ccc(N2CCN(C)CC2)c2c1CCN(C(=O)Nc1ccc(-c3ccc(C(F)(F)F)cc3Cl)cn1)C2 [Compound 34, N-(5-(2-Chloro-4-(trifluoromethyl)phenyl)pyridin-2-yl)-5-methoxy-8-(4-methylpiperazin-1-yl)-3,4-dihydroisoquinoline-2(1H)-carboxamide]	3.2 (≈ 5.71 µM)		3.6 (≈ 6.43 µM)	12 (≈ 21.4 µM)	61 to 64	
COc1ccc(N2CCN(C)CC2)c2c1CCN(C(=O)Nc1ccc(-c3ccc(Cl)cc3C)cn1)C2 [Compound 35, N-(5-(4-chloro-2-methylphenyl)pyridin-2-yl)-5-methoxy-8-(4-methylpiperazin-1-yl)-3,4-dihydroisoquinoline-2(1H)-carboxamide]	3.1 (≈ 6.13 µM)	12.4	1.9 (≈ 3.75 µM)	12 (≈ 23.7 µM)	99 to 101	
COc1ccc(N2CCN(C)CC2)c2c1CCN(C(=O)Nc1ccc(-c3ccc(Cl)cc3Cl)cn1)C2 [Compound 36, N-(5-(2,4-Dichlorophenyl)pyridin-2-yl)-5-methoxy-8-(4-methylpiperazin-1-yl)-3,4-dihydroisoquinoline-2(1H)-carboxamide]		5.7	1.9 (≈ 3.61 µM)	> 32	108 to 111	HLM Clint [6]: 48; MLM Clint [7]: 584
COc1ccc(N2CCN(C)CC2)c2c1CCN(C(=O)Nc1ccc(-c3ccc(OC(F)(F)F)cc3)cn1)C2 [Compound 37, 5-Methoxy-8-(4-methylpiperazin-1-yl)-N-(5-(4-(trifluoromethoxy)phenyl)pyridin-2-yl)-3,4-dihydroisoquinoline-2(1H)-carboxamide]	3.0 (≈ 5.54 µM)		3.1 (≈ 5.72 µM)	12 (≈ 22.2 µM)	196 to 198	
CSc1ccc(N2CCN(C)CC2)c2c1CCN(C(=O)Nc1ccc(-c3ccc(Cl)cc3C)cn1)C2 [Compound 40, N-(5-(4-Chloro-2-methylphenyl)pyridin-2-yl)-8-(4-methylpiperazin-1-yl)-5-(methylthio)-3,4-dihydroisoquinoline-2(1H)-carboxamide]	2.0 (≈ 3.83 µM)		1.9 (≈ 3.64 µM)	13 (≈ 24.9 µM)	111 to 114	
Cc1cc(Cl)ccc1-c1ccc(NC(=O)N2CCc3c(F)ccc(N4CCN(C)CC4)c3C2)nc1 [Compound 42, N-(5-(4-Chloro-2-methylphenyl)pyridin-2-yl)-5-fluoro-8-(4-methylpiperazin-1-yl)-3,4-dihydroisoquinoline-2(1H)-carboxamide]	5.4 (≈ 10.9 µM)	3.64	1.2 (≈ 2.43 µM)	12 (≈ 24.3 µM)	98 to 101	HLM Clint [6]: 50; MLM Clint [7]: 65; selectivity over the human enzyme [8]: 9.4 fold
CN1CCN(c2cccc3c2CN(C(=O)Cc2ccc(-c4ccc(Cl)cc4)cn2)CC3)CC1 [Compound 43, 2-(5-(4-Chlorophenyl)pyridin-2-yl)-1-(8-(4-methylpiperazin-1-yl)-3,4-dihydroisoquinolin-2(1H)-yl)ethan-1-one]	20.3 (≈ 44 µM)		14.1 (≈ 30.6 µM)	19 (≈ 41.2 µM)	49 to 52	
Cc1cc(Cl)ccc1-c1ccc(CC(=O)N2CCc3cccc(N4CCN(C)CC4)c3C2)nc1 [Compound 47]	19.4 (≈ 40.8 µM)		14 (≈ 29.5 µM)	11 (≈ 23.2 µM)	45 to 48	
Cc1ccc(N2CCN(C)CC2)c2c1CCN(C(=O)N1CCC(Oc3ccc(OC(F)(F)F)cc3)CC1)C2 [Compound 48, (5-Methyl-8-(4-methylpiperazin-1-yl)-3,4-dihydroisoquinolin-2(1H)-yl)(4-(4-(trifluoromethoxy)phenoxy)piperidin-1-yl)methanone]	3.9 (≈ 7.32 µM)		6.4 (≈ 12 µM)	19 (≈ 35.7 µM)		HLM Clint [6]: 48; MLM Clint [7]: 40
Cc1ccc(N2CCN(C)CC2)c2c1CCN(C(=O)N1CCC(Oc3ccccc3C(F)(F)F)CC1)C2 [Compound 49, (5-Methyl-8-(4-methylpiperazin-1-yl)-3,4-dihydroisoquinolin-2(1H)-yl)(4-(2-(trifluoromethyl)phenoxy)piperidin-1-yl)methanone]	7.3 (≈ 14.1 µM)	12	7.7 (≈ 14.9 µM)	11 (≈ 21.3 µM)		
COc1ccc(N2CCN(C)CC2)c2c1CCN(C(=O)N1CCC(Oc3ccc(OC(F)(F)F)cc3)CC1)C2 [Compound 50, (5-Methoxy-8-(4-methylpiperazin-1-yl)-3,4-dihydroisoquinolin-2(1H)-yl)(4-(4-(trifluoromethoxy)phenoxy)piperidin-1-yl)methanone]	7.0 (≈ 12.8 µM)		7.6 (≈ 13.9 µM)	15 (≈ 27.3 µM)	49 to 51	
COc1ccc(N2CCN(C)CC2)c2c1CCN(C(=O)N1CCC(Oc3ccccc3C(F)(F)F)CC1)C2 [Compound 51, (5-Methoxy-8-(4-methylpiperazin-1-yl)-3,4-dihydroisoquinolin-2(1H)-yl)(4-(2-(trifluoromethyl)phenoxy)piperidin-1-yl)methanone]	10.0 (≈ 18.8 µM)		12 (≈ 22.5 µM)	24 (≈ 45.1 µM)	74 to 77	
Cc1cc(Cl)ccc1-c1ccc(CN2CCc3c(C)ccc(N4CCSCC4)c3C2)nc1 [Compound 54, 4-(2-((5-(4-Chloro-2-methylphenyl)pyridin-2-yl)methyl)-5-methyl-1,2,3,4-tetrahydroisoquinolin-8-yl)yhiomorpholine]					133 to 135	MIC (µg/mL) LORA (M.tb strain H37Rv [2]): 5.9 µg/mL (≈ 12.7 µM); MIC (M.tb strain H37Rv [4]; MIC90, Table 2, read-out: MIC (µg/mL) MABA): 3.4 µg/mL (≈ 7.33 µM); IC50 ([5]; Table 2): > 32 µg/mL

Source: paper PMC7721589, “Synthesis and structure-activity relationships for tetrahydroisoquinoline-based inhibitors of Mycobacterium tuberculosis” (Bioorganic & Medicinal Chemistry, 2020)
